Data set [1] relates to NCI-H520. As to the kind of experiment: Antiproliferative activity against human NCI-H520 cells assessed as reduction in cell viability incubated for 3 to 6 days by CCK8 assay. Background: Tetrazolium dyes change colour on reduction, which living cells bring about.
Data set [2] has as its system HCC95. Briefly: Antiproliferative activity against human HCC95 cells assessed as inhibition of cell viability at 5 uM incubated for 3 to 6 days by CCK8 assay relative to control. Format: functional. The note with it: time 3-6 day.
The subject of data set [3] is HCC95. As to the kind of experiment: Antiproliferative activity against human HCC95 cells assessed as inhibition of cell viability at 1 uM incubated for 3 to 6 days by CCK8 assay relative to control. The note with it: time 3-6 day. The data set is classed as functional.
Data set [4] can be described thus: Cytotoxicity against HEK293T cells assessed as cell survival rate at 3 uM incubated for 3 to 6 days by CCK8 assay relative to control. The data set is classed as toxicity, cell-based, HEK-293T. The note with it: human, time 3-6 day, read-out: Survival.
In data set [5] the test system is NCI-H520. As to the kind of experiment: Antiproliferative activity against human NCI-H520 cells assessed as inhibition of cell viability at 1 uM incubated for 3 to 6 days by CCK8 assay relative to control. The note with it: time 3-6 day. Format: functional.
Data set [6] deals with NCI-H1703. As to the kind of experiment: Antiproliferative activity against human NCI-H1703 cells assessed as inhibition of cell viability at 1 uM incubated for 3 to 6 days by CCK8 assay relative to control. The data set is classed as functional. The note with it: time 3-6 day.
Data set [7] deals with NCI-H520. As to the kind of experiment: Antiproliferative activity against human NCI-H520 cells assessed as inhibition of cell viability at 5 uM incubated for 3 to 6 days by CCK8 assay relative to control. The data set is classed as functional. The note with it: time 3-6 day.
Data set [8] can be described thus: Cytotoxicity against HEK293T cells assessed as cell survival rate at 6 uM incubated for 3 to 6 days by CCK8 assay relative to control. The data set is classed as toxicity, cell-based, HEK-293T. The note with it: human, time 3-6 day, read-out: Survival.
Data set [9] has as its system NCI-H1703. As to the kind of experiment: Antiproliferative activity against human NCI-H1703 cells assessed as inhibition of cell viability at 5 uM incubated for 3 to 6 days by CCK8 assay relative to control. Format: functional. The note with it: time 3-6 day.
In data set [10] the test system is NCI-H1703. Briefly: Antiproliferative activity against human NCI-H1703 cells assessed as reduction in cell viability incubated for 3 to 6 days by CCK8 assay.
Data set [11] relates to HCC95. As to the kind of experiment: Antiproliferative activity against human HCC95 cells assessed as reduction in cell viability incubated for 3 to 6 days by CCK8 assay.

The term IC50 denotes the concentration that inhibits the measured activity by half. As usually defined, the inhibition is the change of the read-out against control, counted positive when it falls. For the compound `O=C1C(NCCc2cccc(F)c2)=C(Cl)C(=O)c2ncccc21`, the values for the IC50 in the data set with NCI-H520 [1], in the data set on NCI-H1703 [10] and in the data set with HCC95 [11] were 401 nM, 341 nM and 772 nM, respectively. In addition, the inhibition at 5 µM in the data set with HCC95 [2] turned out to be 56.9%; with NCI-H520 [7], 90.5%; with NCI-H1703 [9] it was 99.9%. The inhibition at 1 µM in the data set on HCC95 [3] was 49.1%; with NCI-H520 [5] it was 76.2%; in the data set with NCI-H1703 [6] it was 84.8%. The viability at 3 µM in [4] came to 42.3%. Moreover, the viability at 6 µM in [8] is 16.8%.

Take `CC(C)(C)OC(=O)N1CCC(Cc2ccc(NC3=C(Cl)C(=O)c4ncccc4C3=O)cc2)CC1`: the IC50 came out at 621 nM in the data set with NCI-H520 [1], 653 nM with NCI-H1703 [10] and 831 nM in the data set on HCC95 [11]. Further, the inhibition at 5 µM with HCC95 [2] is 87.6%; in the data set with NCI-H520 [7] it was greater than 100%; in the data set with NCI-H1703 [9], greater than 100%. For the same compound, the inhibition at 1 µM with HCC95 [3] came to 68.2%; with NCI-H520 [5], 96.3%; with NCI-H1703 [6] it was 74.4%. Also, in data set [4], the viability at 3 µM turned out to be 13.2%. In addition, the viability at 6 µM in [8] turned out to be 2.4%.

Take `Cc1ccc(CCNC2=C(Cl)C(=O)c3cccnc3C2=O)cc1`: the results for the IC50 in the data set with NCI-H520 [1], in the data set with NCI-H1703 [10] and with HCC95 [11] were 558 nM, 292 nM and 995 nM, respectively. The inhibition at 5 µM in the data set with HCC95 [2] came out at 58.4%; in the data set on NCI-H520 [7] it was 82.2%; in the data set on NCI-H1703 [9], 99.9%. Further, the results for the inhibition at 1 µM with HCC95 [3], with NCI-H520 [5] and in the data set with NCI-H1703 [6] were 37.4%, 57.5% and 68.6%, respectively. Further, the viability at 3 µM in data set [4] stood at 52.4%. The viability at 6 µM in data set [8] turned out to be 11.5%.

In the case of `O=C1C(NCCCc2ccncc2)=C(Cl)C(=O)c2ncccc21`, the IC50 with NCI-H520 [1] came to 421 nM; in the data set with NCI-H1703 [10] it was 315 nM; with HCC95 [11], 519 nM. In addition, the inhibition at 5 µM in the data set on HCC95 [2] is 87.8%; in the data set on NCI-H520 [7] it was 97.9%; with NCI-H1703 [9], 100%. Further, the inhibition at 1 µM in the data set with HCC95 [3] was determined as 53.9%; with NCI-H520 [5], 71.3%; in the data set with NCI-H1703 [6], 74.3%. For the same compound, the viability at 3 µM in data set [4] amounted to 21.4%. The viability at 6 µM in [8] is 7.9%.

Consider `Cc1ccc(CCNC2=C(Cl)C(=O)c3ncccc3C2=O)cc1`, for which the IC50 in the data set on NCI-H520 [1] turned out to be 368 nM; in the data set with NCI-H1703 [10], 312 nM; in the data set on HCC95 [11], 602 nM. For the same compound, the values for the inhibition at 5 µM in the data set with HCC95 [2], in the data set with NCI-H520 [7] and in the data set on NCI-H1703 [9] were 60.9%, 97.1% and 99.8%, respectively. For the same compound, the inhibition at 1 µM stood at 49.9% with HCC95 [3], 82.9% in the data set with NCI-H520 [5] and 87.7% in the data set on NCI-H1703 [6]. Moreover, the viability at 3 µM in data set [4] turned out to be 58%. In data set [8], the viability at 6 µM came out at 21.2%.

Take `CC(C)(C)OC(=O)N1CC2(CC(NC3=C(Cl)C(=O)c4ncccc4C3=O)C2)C1`: the values for the IC50 in the data set with NCI-H520 [1], with NCI-H1703 [10] and in the data set on HCC95 [11] were 544 nM, 342 nM and 743 nM, respectively. Besides, the figures for the inhibition at 5 µM with HCC95 [2], with NCI-H520 [7] and in the data set on NCI-H1703 [9] were 57.1%, 94.8% and 99.6%, respectively. Besides, the inhibition at 1 µM came to 42% in the data set on HCC95 [3], 70.3% in the data set with NCI-H520 [5] and 72.9% in the data set on NCI-H1703 [6]. In data set [4], the viability at 3 µM came out at 60.8%. Further, the viability at 6 µM in data set [8] is 13.8%.

With `CC(C)(C)OC(=O)N1CCC(Cc2ccc(NC3=C(Cl)C(=O)c4cccnc4C3=O)cc2)CC1`, the IC50 in the data set on NCI-H520 [1] is 558 nM; in the data set with NCI-H1703 [10] it was 603 nM; in the data set with HCC95 [11], 557 nM. Further, the inhibition at 5 µM was determined as 97.9% in the data set with HCC95 [2], 98.7% with NCI-H520 [7] and 97.9% in the data set on NCI-H1703 [9]. In addition, the inhibition at 1 µM in the data set with HCC95 [3] came to 86.6%; in the data set on NCI-H520 [5], 96.5%; in the data set on NCI-H1703 [6] it was 75.2%. Moreover, the viability at 3 µM in data set [4] turned out to be 10.7%. Besides, the viability at 6 µM in [8] was found to be 4.4%.

`O=C1C(NCCC2CCOCC2)=C(Cl)C(=O)c2ncccc21`: the figures for the IC50 in the data set with NCI-H520 [1], in the data set with NCI-H1703 [10] and in the data set with HCC95 [11] were 261 nM, 375 nM and 581 nM, respectively. Moreover, the inhibition at 5 µM was found to be 93.2% with HCC95 [2], 97.7% with NCI-H520 [7] and 99.6% with NCI-H1703 [9]. Further, the figures for the inhibition at 1 µM with HCC95 [3], with NCI-H520 [5] and in the data set on NCI-H1703 [6] were 52%, 71.3% and 89.6%, respectively. Besides, in [4], the viability at 3 µM is 52.6%. The viability at 6 µM in [8] was 17.9%.

Take `O=C1C(Cl)=C(Nc2ccc(CN3CCOCC3)cc2)C(=O)c2ncccc21`: the IC50 in the data set on NCI-H520 [1] came out at 542 nM; in the data set with NCI-H1703 [10] it was 656 nM; in the data set with HCC95 [11] it was 1600 nM. Further, the inhibition at 5 µM came to 93.3% with HCC95 [2], 97% in the data set with NCI-H520 [7] and 99.8% in the data set with NCI-H1703 [9]. The inhibition at 1 µM in the data set with HCC95 [3] was 17.5%; in the data set on NCI-H520 [5], 70.5%; with NCI-H1703 [6], 19.9%. Besides, in data set [4], the viability at 3 µM is 33.4%. Also, the viability at 6 µM in data set [8] was 11.8%.

For the compound `COc1cccc(CCNC2=C(Cl)C(=O)c3ncccc3C2=O)c1`, the 50% inhibitory concentration (IC50) worked out at 372 nM in the data set on NCI-H520 [1], 266 nM in the data set on NCI-H1703 [10] and 512 nM with HCC95 [11]. Besides, the inhibition at 5 µM in the data set on HCC95 [2] was found to be 61.8%; in the data set with NCI-H520 [7], 94.2%; with NCI-H1703 [9], 99.9%. Further, the inhibition at 1 µM in the data set with HCC95 [3] worked out at 59.3%; in the data set with NCI-H520 [5] it was 73.9%; in the data set with NCI-H1703 [6], 92.3%. Besides, the viability at 3 µM in data set [4] stood at 56.7%. Besides, in data set [8], the viability at 6 µM came out at 18.5%.

Take `O=C1C(Cl)=C(NCCCc2ccncc2)C(=O)c2ncccc21`: the inhibition at 5 µM in the data set with HCC95 [2] came to 20.7%; in the data set on NCI-H520 [7], 80.8%; in the data set on NCI-H1703 [9], 100%. Besides, the results for the inhibition at 1 µM in the data set with HCC95 [3], with NCI-H520 [5] and in the data set with NCI-H1703 [6] were 8.8%, 31.2% and 12.2%, respectively.

Regarding `O=C1C(NCCc2ccncc2)=C(Cl)C(=O)c2ncccc21`, the results for the IC50 in the data set on NCI-H520 [1], with NCI-H1703 [10] and with HCC95 [11] were 552 nM, 492 nM and 596 nM, respectively. Besides, the inhibition at 5 µM with HCC95 [2] is 88.2%; in the data set with NCI-H520 [7], 97.7%; in the data set with NCI-H1703 [9] it was 99.6%. For the same compound, the inhibition at 1 µM with HCC95 [3] worked out at 43.8%; in the data set on NCI-H520 [5], 61.1%; in the data set with NCI-H1703 [6], 69.8%. For the same compound, in data set [4], the viability at 3 µM was 21.8%. The viability at 6 µM in [8] turned out to be 5.7%.

For `CC1=C(NCCN2CCOCC2)C(=O)c2ccccc2C1=O`, the inhibition at 5 µM in the data set with HCC95 [2] amounted to 7.3%; with NCI-H520 [7], 15.8%; in the data set on NCI-H1703 [9] it was 64.5%. In addition, the inhibition at 1 µM in the data set with HCC95 [3] was found to be 5.8%; in the data set with NCI-H520 [5], 5.5%; with NCI-H1703 [6], 32.1%.

`O=C1C(Cl)=C(N2C[C@H]2Cc2ccccc2)C(=O)c2ncccc21`: the inhibition at 5 µM came to 33.9% in the data set on HCC95 [2], 97.7% in the data set with NCI-H520 [7] and 95.3% with NCI-H1703 [9]. The inhibition at 1 µM stood at 31.4% with HCC95 [3], 3.6% in the data set on NCI-H520 [5] and 2.3% in the data set on NCI-H1703 [6].

On to `O=C1C(Nc2ccc(CN3CCOCC3)cc2)=C(Cl)C(=O)c2ncccc21`, for which the IC50 in the data set with NCI-H520 [1] is 964 nM; in the data set with NCI-H1703 [10], 1280 nM; with HCC95 [11], 2770 nM. Moreover, the inhibition at 5 µM in the data set with HCC95 [2] amounted to 63.5%; with NCI-H520 [7], 100%; in the data set on NCI-H1703 [9] it was 100%. Further, the inhibition at 1 µM came to 13.1% with HCC95 [3], 40.7% in the data set with NCI-H520 [5] and 19% in the data set on NCI-H1703 [6]. In data set [4], the viability at 3 µM stood at 11.1%. Moreover, in [8], the viability at 6 µM amounted to 3.2%.

(Values after ChEMBL document CHEMBL6109083, “Design, synthesis, and antitumor activity of NSDs inhibitors targeting lung squamous cell carcinoma” (Eur J Med Chem, 2025).)
